Consider two compounds from US12637717B2, “Method for treating and predicting prognosis of gastric cancer patient by calculating RNA expression with logistic regression” (National Yang Ming Chiao Tung University, priority 2022, dated 2026).

SMILES strings stand for the structures.

Common to all, as to type: cell-based, human
For one test, the system named is Hs746T. Description: cell viability of diffuse-type GC cell line Hs746T after inhibitor treatment. Conditions: 2.5 μM, 5 μM and 10 μM, triplicate. The source says: (§1) The potential tumor antigens (pTAs) expression and signaling pathways were validated in vitro. To validate the association of pTAs with the EMT-like subtype of gastric cancer, the pTAs expression at intestinal-type and diffuse-type GC cell lines were investigated by western blotting. The human GC cell line AGS was obtained from American Type Culture Collection (ATCC) CRL-1739™, and Hs746T was obtained from ATCC HTB-135™, and SNU-1 was obtained from ATCC CRL5971™. Hs746T and SNU-1 were diffuse-type GC cell lines; AGS was an intestinal type GC cell line.
(§2) Therefore, two inhibitors (SB431542 and GDC-0449 (Vismodegib)) were used to validate whether the TGF-β and hedgehog signaling pathways were activated in diffuse-type GC cell lines, respectively. The experiments were performed in triplicate.

A further test has as its system SNU-1. As to the kind of experiment: cell viability of diffuse-type GC cell line SNU-1 after inhibitor treatment. As to conditions: 2.5 μM, 5 μM and 10 μM, triplicate.
From the text: as §1, §2

For the next test, the system named is AGS. As to the kind of experiment: cell viability of intestinal type GC cell line AGS after inhibitor treatment. Conditions: for cell viability (inhibiting effect): 2.5 μM, 5 μM and 10 μM, triplicate.
From the text: as §1, §2

In the case of `CS(=O)(=O)c1ccc(C(=O)Nc2ccc(Cl)c(-c3ccccn3)c2)c(Cl)c1` [GDC-0449, Vismodegib], the cell viability result with Hs746T and in the test on SNU-1 was “significantly decreased” in each case. Moreover, the “cell viability (inhibiting effect)” value with AGS is “did not have significant effects of inhibiting”. Moreover, the effect on proliferation entry in the test on AGS (concentrations of 2.5 μM and 5 μM) is “effects of promoting proliferation”.
For the compound `NC(=O)c1ccc(-c2nc(-c3ccc4c(c3)OCO4)c(-c3ccccn3)[nH]2)cc1` [SB431542], the cell viability result with Hs746T and in the test with SNU-1 was “significantly decreased” throughout. Also, in the test on AGS, the “cell viability (inhibiting effect)” value is reported as “did not have significant effects of inhibiting”.
